# Experimental data as given in article PMC7725003, “Systematically Studying the Optimal Amino Acid Distribution Patterns of the Amphiphilic Structure by Using the Ultrashort Amphiphiles” (Frontiers in Microbiology, 2020).
# Where no end group is shown, it is not given here.
# Experiments:
# [1] = tested on: E. coli 25922; format: cell-based, Escherichia coli; details: 25922, 24 h
# Outline: (§1)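 Inoculum: mid-log phase, MHB, 0.5–1 × 10^6 CFU mL^–1. Peptides: serial dilution in 0.2% BSA, equal volume. Incubation: 24 h, 37°C. Read-out: A492, MIC at 95% inhibition; MBC >99.9% kill after agar subculture.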
# [2] = tested on: E. coli O78; format: cell-based, Escherichia coli; details: O78, 24 h
# Outline: as §1
# [3] = tested on: E. coli UB1005; format: cell-based, Escherichia coli; details: UB1005, 24 h
# Outline: as §1
# [4] = tested on: S. typhimurium 14028; format: cell-based, Salmonella typhimurium; details: 14028, 24 h
# Outline: as §1
# [5] = tested on: S. typhimurium 7731; format: cell-based, Salmonella typhimurium; details: 7731, 24 h
# Outline: as §1
# [6] = tested on: S. pullorum 7913; format: cell-based, Salmonella pullorum; details: 7913, 24 h
# Outline: as §1
# [7] = tested on: P. aeruginosa 27853; format: cell-based, Pseudomonas aeruginosa; details: 27853, 24 h
# Outline: as §1
# [8] = tested on: E. coli K88; details: for MIC: MHB, 24 h 37°C, 95% growth inhibition; for MBC: value in brackets, >99.9% of cells killed
# Description: (§2) The antimicrobial activities of the peptides were measured using a method adapted from the National Committee for Clinical Laboratory Standards (NCCLS) with some modifications ([Chou et al., 2016]). The specific procedure for these assays has been previously described. In brief, the bacterial cells were grown to a mid-logarithmic phase and diluted in MHB to an ultimate concentration of 0.5–1 × 10^6 CFU mL^–1. Subsequently, the peptides were consecutively diluted in a 0.2% BSA solution and then added to a bacterial solution in a 96-well plate at identical volumes. After incubation for 24 h at 37°C, the MICs were determined to be the lowest peptide concentration that inhibited 95% of the bacterial growth by monitoring the absorbance at 492 nm using a microplate reader. Subsequently, 50 μL of each incubation mixture was further transferred to agar plates and incubated overnight. […] Every assay was reproduced more than 3 times.
# [9] = tested on: E. coli K99; details: for MIC: MHB, 24 h 37°C, 95% growth inhibition
# Description: as §2
# [10] = tested on: Gram-negative bacteria; details: for GM MIC: geometric mean of MICs, 9 Gram-negative strains (Table 2); for TI, Gram-negative bacteria: therapeutic index TI = MHC/GM MIC
# Outline: (§3)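 Broth microdilution adapted from NCCLS: mid-log bacteria diluted in MHB to 0.5–1 × 10^6 CFU mL^–1, mixed with peptides serially diluted in 0.2% BSA. After 24 h at 37°C, MIC taken as the lowest concentration inhibiting 95% of growth by absorbance at 492 nm. Assays repeated more than 3 times.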
# [11] = tested on: Gram-positive bacteria; details: for GM MIC: geometric mean of MICs, 7 Gram-positive strains (Table 2); for TI, Gram-positive bacteria: therapeutic index TI = MHC/GM MIC
# Outline: as §3
# [12] = tested on: S. aureus 25923; format: cell-based, Staphylococcus aureus; details: 25923, 24 h
# Outline: as §1
# [13] = tested on: S. aureus 29213; format: cell-based, Staphylococcus aureus; details: 29213, 24 h
# Outline: as §1
# [14] = tested on: S. epidermidis 12228; format: cell-based, Staphylococcus epidermidis; details: 12228, 24 h
# Outline: as §1
# [15] = tested on: MRSA 43300; format: cell-based, methicillin-resistant S. aureus; details: 43300, 24 h
# Outline: as §1
# [16] = tested on: B. subtilis 63501; format: cell-based, Bacillus subtilis; details: 63501, 24 h
# Outline: as §1
# [17] = tested on: E. faecalis 29212; format: cell-based, Enterococcus faecalis; details: 29212, 24 h
# Outline: as §1
# [18] = tested on: Listeria monocytogenes CGMCC 1.1075; format: cell-based; details: CGMCC 1.1075, 24 h
# Outline: as §1
# [19] = tested on: all of the tested bacterial strains; assay: Geometric mean of MICs, all tested bacterial strains; format: cell-based; details: for GM, All: geometric mean of MICs across all tested strains; for TI, All: therapeutic index TI = MHC/GM MIC
# Outline: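 Mid-log bacteria at 0.5–1 × 10^6 CFU mL^–1 in MHB with peptides serially diluted in 0.2% BSA, 24 h at 37°C. MIC is the lowest concentration giving 95% growth inhibition by A492. MBC is the lowest giving >99.9% kill on agar subculture, and the GM is taken over all strains.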
# [20] = tested on: E. coli ATCC 25922; assay: Salt sensitivity assay (MIC); format: cell-based, Escherichia coli; details: for MIC, FeCl3: 4 μM FeCl3; for MIC, NH4Cl: 6 μM NH4Cl; for MIC, ZnCl2: 8 μM ZnCl2; for MIC, MgCl2: 1 mM MgCl2; for MIC, CaCl2: 2 mM CaCl2; for MIC, KCl: 4.5 mM KCl; for MIC, NaCl: 150 mM NaCl; for MIC, Control: no added salt, three independent assays
# Outline: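 The salt sensitivity of peptides was tested against E. coli ATCC 25922 using a modified NCCLS broth microdilution MIC method. Mid-log bacteria were diluted in MHB to 0.5–1 × 10^6 CFU mL^–1 and mixed in equal volumes with peptides serially diluted in 0.2% BSA in 96-well plates. Physiological salt was added where specified, and the assay was done three independent times.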
# [21] = tested on: S. aureus 29213; assay: Salt sensitivity assay (MIC); format: cell-based, Staphylococcus aureus; details: for MIC, FeCl3: 4 μM FeCl3; for MIC, NH4Cl: 6 μM NH4Cl; for MIC, ZnCl2: 8 μM ZnCl2; for MIC, MgCl2: 1 mM MgCl2; for MIC, CaCl2: 2 mM CaCl2; for MIC, KCl: 4.5 mM KCl; for MIC, NaCl: 150 mM NaCl; for MIC, Control: no added salt, three independent assays
# Outline: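 MICs determined by broth microdilution in MHB with 0.5–1 × 10^6 CFU/mL, peptides serially diluted in 0.2% BSA, 24 h at 37°C. Medium supplemented with physiological salts (150 mM NaCl, 4.5 mM KCl, 6 μM NH4Cl, 8 μM ZnCl2, 1 mM MgCl2, 2mM CaCl2, 4 μM FeCl3). MIC = lowest concentration inhibiting 95% growth (A492).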
# [22] = tested on: Gram-negative bacteria; details: geometric mean of MBCs, 9 Gram-negative strains (Table 2)
# [23] = tested on: Gram-positive bacteria; details: geometric mean of MBCs, 7 Gram-positive strains (Table 2)
substance,measurement,setting,value
LRRLRLLRL-NH2 [L12],MBC,[1],64 µM
same,MIC,[1],32 µM
same,MBC,[2],128 µM
same,MIC,[2],64 µM
same,MBC,[3],64 µM
same,MIC,[3],32 µM
same,MIC,[4],> 64 µM
same,MIC,[5],> 64 µM
same,MBC,[6],64 µM
same,MIC,[6],32 µM
same,MIC,[7],> 64 µM
same,MIC,[8],16 µM
same,MBC,[8],32 µM
same,MIC,[9],> 64 µM
same,GM MIC,[10],59.26 µM
same,"TI, Gram-negative bacteria",[10],4.32
same,GM MIC,[11],70.66 µM
same,"TI, Gram-positive bacteria",[11],3.62
same,MIC,[12],> 64 µM
same,MIC,[13],>64 µM
same,MIC,[14],> 64 µM
same,MIC,[15],>64 µM
same,MBC,[16],32 µM
same,MIC,[16],16 µM
same,MIC,[17],> 64 µM
same,MBC,[18],32 µM
same,MIC,[18],16 µM
same,"GM, All",[19],64.00 µM
same,"TI, All",[19],4.00
same,"MIC, FeCl3",[20],32 µM
same,"MIC, NH4Cl",[20],32 µM
same,"MIC, ZnCl2",[20],32 µM
same,"MIC, MgCl2",[20],> 64 µM
same,"MIC, CaCl2",[20],> 64 µM
same,"MIC, KCl",[20],32 µM
same,"MIC, NaCl",[20],> 64 µM
same,"MIC, Control",[20],32 µM
same,"MIC, FeCl3",[21],> 64 µM
same,"MIC, NH4Cl",[21],> 64 µM
same,"MIC, ZnCl2",[21],> 64 µM
same,"MIC, MgCl2",[21],> 64 µM
same,"MIC, CaCl2",[21],> 64 µM
same,"MIC, KCl",[21],> 64 µM
same,"MIC, NaCl",[21],> 64 µM
same,"MIC, Control",[21],> 64 µM
same,GM MBC,[22],87.09 µM
same,GM MBC,[23],86.14 µM
RRLLLLRRL-NH2 [L7],MIC,[1],> 64 µM
same,MBC,[2],128 µM
same,MIC,[2],64 µM
same,MIC,[3],>64 µM
same,MIC,[4],> 64 µM
same,MIC,[5],> 64 µM
same,MIC,[6],>64 µM
same,MIC,[7],> 64 µM
same,MIC,[8],32 µM
same,MBC,[8],64 µM
same,MIC,[9],64 µM
same,MBC,"[9]; value in brackets, >99.9% of cells killed",128 µM
same,GM MIC,[10],94.06 µM
same,"TI, Gram-negative bacteria",[10],2.72
same,GM MIC,[11],64.00 µM
same,"TI, Gram-positive bacteria",[11],4.00
same,MIC,[12],> 64 µM
same,MIC,[13],>64 µM
same,MIC,[14],> 64 µM
same,MIC,[15],>64 µM
same,MBC,[16],16 µM
same,MIC,[16],8 µM
same,MIC,[17],> 64 µM
same,MBC,[18],32 µM
same,MIC,[18],16 µM
same,"GM, All",[19],79.48 µM
same,"TI, All",[19],3.22
same,"MIC, FeCl3",[20],> 64 µM
same,"MIC, NH4Cl",[20],> 64 µM
same,"MIC, ZnCl2",[20],> 64 µM
same,"MIC, MgCl2",[20],> 64 µM
same,"MIC, CaCl2",[20],> 64 µM
same,"MIC, KCl",[20],> 64 µM
same,"MIC, NaCl",[20],> 64 µM
same,"MIC, Control",[20],> 64 µM
same,"MIC, FeCl3",[21],> 64 µM
same,"MIC, NH4Cl",[21],> 64 µM
same,"MIC, ZnCl2",[21],> 64 µM
same,"MIC, MgCl2",[21],> 64 µM
same,"MIC, CaCl2",[21],> 64 µM
same,"MIC, KCl",[21],> 64 µM
same,"MIC, NaCl",[21],> 64 µM
same,"MIC, Control",[21],> 64 µM
same,GM MBC,[22],118.51 µM
same,GM MBC,[23],78.02 µM
